Legend:
control strain MG1655 = assay: C. elegans infection system: control strain bacteria recovered from the nematode gut after treatment; type: in vivo, E. coli; details: MG1655-fed C. elegans; 100 μg/mL gentamicin, 50 μg/mL kanamycin, 7 μg/mL heparin or 0.01% mannose in M9 buffer, 24 hours at 26° C.; P<0.001 for all compounds tested; FIG. 4
Procedure: (§1) Nematodes were infected with prototypical ETEC H10407 or control MG1655 strains on NGM agar. After 24 hours of infection, 30 nematodes were harvested and placed in 1 mL M9 buffer (black bars), or M9 buffer supplemented with 100 μg/mL gentamicin (white bars), 50 μg/mL kanamycin (cross-hatched bars), 7 μg/mL heparin (checkered bars), or 0.01% mannose (speckled bars), and incubated at 26° C. for 24 hours. Values represent the means of three replicate assays, and error bars indicate 1 SD.
In one embodiment, a C. elegans/ETEC infection system can be used to screen for chemotherapeutic agents able to disrupt colonization of the nematode gut. In another embodiment, a C. elegans/ETEC infection system may be used to test a range of compounds including, for purposes of example only, the bacteriocidal antibiotic gentamicin, bacteriostatic antibiotic kanamycin, heparin, which may disrupt bacterial adherence, and mannose, which inhibits type I fimbria-mediated adherence to host cells. Age-synchronized L4 nematodes were placed on NGM agar inoculated with either strain H10407 or the control MG1655. Twenty-four hours post-infection, 30 nematodes fed each strain were placed in M9 buffer or M9 buffer supplemented with the desired compounds. After an additional 24 hours of incubation at 26° C., nematodes were harvested, washed to remove exterior bacteria, pulverized and plated on selective LB agar. […]

[1] = tested on: enteropathogenic E. coli (EPEC) strain E2348/69; assay: C. elegans infection system: EPEC bacteria recoverable from the nematode gut after treatment; type: in vivo; details: EPEC E2348/69-infected C. elegans; gentamicin; data not shown
Excerpt: With continued reference to FIG. 4, there was no significant difference in the number of recoverable ETEC bacteria after treatment with any of the other compounds tested. […] The present invention therefore also includes a C. elegans small animal infection model for studying EPEC. Accordingly, a C. elegans infection system could be used to screen for potentially therapeutic chemical agents against multiple E. coli pathotypes.

ETEC strain H10407 = assay: C. elegans/ETEC infection system: screen of chemotherapeutic agents against colonization of the nematode gut; type: in vivo, E. coli; details: ETEC H10407-infected C. elegans, 24 hours at 26° C.
Procedure: as §1
In one embodiment, a C. elegans/ETEC infection system can be used to screen for chemotherapeutic agents able to disrupt colonization of the nematode gut. In another embodiment, a C. elegans/ETEC infection system may be used to test a range of compounds including, for purposes of example only, the bacteriocidal antibiotic gentamicin, bacteriostatic antibiotic kanamycin, heparin, which may disrupt bacterial adherence, and mannose, which inhibits type I fimbria-mediated adherence to host cells. Age-synchronized L4 nematodes were placed on NGM agar inoculated with either strain H10407 or the control MG1655. Twenty-four hours post-infection, 30 nematodes fed each strain were placed in M9 buffer or M9 buffer supplemented with the desired compounds. After an additional 24 hours of incubation at 26° C., nematodes were harvested, washed to remove exterior bacteria, pulverized and plated on selective LB agar.
After 3 days at 26° C., L4 nematodes were removed from feeding using a platinum wire and placed on rifampin-containing NGM agar plates with pre-grown ETEC and control strains that were incubated at 37° C. overnight. Prior to seeding of C. elegans, NGM and CFA agar plates were shifted to 26° C., the temperature where they remained for the duration of the assay. For the standard plate count assay, nematodes were fed on ETEC and control strains for 24 hours. […]

Substance	reduction in the number of bacteria recovered from the nematode gut, significance (control strain MG1655)	reduction in the number of EPEC bacteria recoverable from the nematode gut compared to untreated EPEC-infected nematodes [1]	reduction in the number of ETEC bacteria recoverable from the nematode gut (vs M9 buffer), significance (ETEC strain H10407; 100 μg/mL gentamicin, 50 μg/mL kanamycin, 7 μg/mL heparin or 0.01% mannose in M9 buffer, FIG. 4)	size of the reduction in recoverable ETEC bacteria, M9 buffer versus M9 buffer supplemented with gentamicin (ETEC strain H10407; 100 μg/mL gentamicin)	mean number of bacteria recoverable from the nematode gut after incubation (ETEC strain H10407; M9 buffer supplemented with 100 μg/mL gentamicin, FIG. 4)
gentamicin	significant reduction	approximately one order of magnitude	significant (P=0.004) reduction	approximately one order of magnitude	1×10^4 CFU per nematode
heparin	significant reduction				
